Source: ChEMBL document CHEMBL5550201, “Discovery of a Highly Potent, Selective and Efficacious USP7 Degrader for the Treatment of Acute Lymphoblastic Leukemia” (J Med Chem, 2024)
Calls of active or inactive are those of the source. The rule behind the calls is not given here.

Columns and labels:
RS4-11 [1] = experiment: Induction of apoptosis in human RS4-11 cells assessed as viable cells at 1000 nM measured after 72 hrs by FITC-annexin-V/PI analysis (reference value: 91.41%); type: functional; conditions: read-out: Activity
RS4-11 [2] = experiment: Induction of apoptosis in human RS4-11 cells assessed as late apoptotic cells at 1000 nM measured after 72 hrs by FITC-annexin-V/PI analysis (reference value: 3.23%); type: functional
RS4-11 [3] = experiment: Induction of apoptosis in human RS4-11 cells assessed as early apoptotic cells at 100 nM measured after 72 hrs by FITC-annexin-V/PI analysis (reference value: 5.36%); type: functional
[4] = molecular target: T1, von Hippel-Lindau disease tumor suppressor/Ubiquitin carboxyl-terminal hydrolase 7 (Homo sapiens, UniProt Q93009+P40337); experiment: PROTACT activity at USP7/VHL in human RS4;11 cells assessed as protein degradation at 10 nM measured after 6 hrs in presence of (R)-3-(4-(aminomethyl)phenyl)-6-((4-hydroxy-1-(3-phenylbutanoyl)piperidin-4-yl)methyl)-2-methyl-2,6-dihydro-7H-pyrazolo[4,3-d]pyrimidin-7-one by Western blot analysis; type: cell-based
RS4-11 [5] = experiment: Induction of apoptosis in human RS4-11 cells assessed as early apoptotic cells at 10 nM measured after 72 hrs by FITC-annexin-V/PI analysis (reference value: 5.36%); type: functional
RS4-11 [6] = experiment: Induction of apoptosis in human RS4-11 cells assessed as late apoptotic cells at 10 nM measured after 72 hrs by FITC-annexin-V/PI analysis (reference value: 3.23%); type: functional
RS4-11 [7] = experiment: Induction of apoptosis in human RS4-11 cells assessed as early apoptotic cells at 1000 nM measured after 72 hrs by FITC-annexin-V/PI analysis (reference value: 5.36%); type: functional
[8] = molecular target: T1, von Hippel-Lindau disease tumor suppressor/Ubiquitin carboxyl-terminal hydrolase 7; experiment: PROTACT activity at USP7/VHL in human RS4;11 cells assessed as protein degradation at 10 nM measured after 6 hrs in presence of proteasome inhibitors PS-341 by Western blot analysis; type: cell-based

T1 sequence (P40337 whole entry, looked up): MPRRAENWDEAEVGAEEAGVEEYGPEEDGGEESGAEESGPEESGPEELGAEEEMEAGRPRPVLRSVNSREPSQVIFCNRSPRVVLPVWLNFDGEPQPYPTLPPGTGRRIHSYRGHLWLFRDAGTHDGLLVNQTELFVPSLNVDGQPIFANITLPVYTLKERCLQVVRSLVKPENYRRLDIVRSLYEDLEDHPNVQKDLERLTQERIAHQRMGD
T1 sequence (Q93009 whole entry, looked up): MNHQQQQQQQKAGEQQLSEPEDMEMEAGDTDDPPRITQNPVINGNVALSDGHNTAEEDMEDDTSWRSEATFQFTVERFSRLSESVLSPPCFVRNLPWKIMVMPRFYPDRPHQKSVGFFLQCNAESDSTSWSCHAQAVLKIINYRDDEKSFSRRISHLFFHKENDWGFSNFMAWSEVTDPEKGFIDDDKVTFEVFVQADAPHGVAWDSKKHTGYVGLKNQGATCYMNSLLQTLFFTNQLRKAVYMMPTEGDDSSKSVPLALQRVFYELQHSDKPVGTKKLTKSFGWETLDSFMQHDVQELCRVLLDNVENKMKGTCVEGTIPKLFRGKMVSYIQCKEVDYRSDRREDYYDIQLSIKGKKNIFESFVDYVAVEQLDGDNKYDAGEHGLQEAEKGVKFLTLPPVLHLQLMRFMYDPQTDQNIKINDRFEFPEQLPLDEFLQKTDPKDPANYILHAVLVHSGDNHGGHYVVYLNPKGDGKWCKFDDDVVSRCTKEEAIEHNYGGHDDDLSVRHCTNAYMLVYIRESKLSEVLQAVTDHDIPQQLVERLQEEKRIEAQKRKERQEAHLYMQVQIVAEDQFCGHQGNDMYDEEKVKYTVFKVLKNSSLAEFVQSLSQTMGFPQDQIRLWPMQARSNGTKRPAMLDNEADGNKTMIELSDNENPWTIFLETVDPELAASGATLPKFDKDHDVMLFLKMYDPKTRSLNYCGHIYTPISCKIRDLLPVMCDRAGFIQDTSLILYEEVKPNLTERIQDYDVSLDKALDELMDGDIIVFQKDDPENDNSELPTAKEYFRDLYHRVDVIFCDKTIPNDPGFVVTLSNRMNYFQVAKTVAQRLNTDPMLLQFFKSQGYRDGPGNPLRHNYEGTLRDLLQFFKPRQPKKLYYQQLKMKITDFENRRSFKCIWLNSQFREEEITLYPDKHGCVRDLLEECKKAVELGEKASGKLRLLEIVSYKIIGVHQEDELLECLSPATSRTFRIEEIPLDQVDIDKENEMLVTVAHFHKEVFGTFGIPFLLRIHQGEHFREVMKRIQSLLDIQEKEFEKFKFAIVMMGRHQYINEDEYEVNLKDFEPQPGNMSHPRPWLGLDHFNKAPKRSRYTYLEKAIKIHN

- Activity [4]: inactive
- Activity [8]: inactive
Compound: Cc1ncsc1-c1ccc([C@H](C)NC(=O)[C@@H]2C[C@@H](O)CN2C(=O)[C@@H](c2cc(N3CCN(Cc4ccc(-c5c6ncn(CC7(O)CCN(C(=O)C[C@@H](C)c8ccccc8)CC7)c(=O)c6nn5C)cc4)CC3)no2)C(C)C)cc1
- viability at 1 µM (RS4-11 [1]): 55.3%
- Activity (RS4-11 [2]): 24.89%
- Activity (RS4-11 [3]): 19.6%
- Activity (RS4-11 [5]): 17.36%
- Activity (RS4-11 [6]): 16.98%
- Activity (RS4-11 [7]): 19.81%
